Assay results taken from patent US10590140B2, “Tetrahydropyrimidodiazepine and dihydropyridodiazepine compounds for treating pain and pain related conditions” (ESTEVE PHARMACEUTICALS, S.A., priority 2016, dated 2020).
Where two headings read alike, the source gives them in different places.

Molecular target: human α2δ-1 subunit of Cav2.2 calcium channel (Homo sapiens (Human), UniProt P54289)
Assay: Binding assay to human α2δ-1 subunit of Cav2.2 calcium channel ([3H]-Gabapentin)
Conditions: read-out: Ki (nM) α2δ-1
How it was run: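 Radioactivity on dried GF/C filters quantified by scintillation after filtration and three cold Tris-HCl (pH 7.4) washes. Incubation ran 60 min at 27° C with [3H]-gabapentin; 10 μM pregabalin gave nonspecific binding.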

[1] = binding to α2δ-1, [3H]-Gabapentin

Chain of human α2δ-1 subunit of Cav2.2 calcium channel (P54289 25-1103): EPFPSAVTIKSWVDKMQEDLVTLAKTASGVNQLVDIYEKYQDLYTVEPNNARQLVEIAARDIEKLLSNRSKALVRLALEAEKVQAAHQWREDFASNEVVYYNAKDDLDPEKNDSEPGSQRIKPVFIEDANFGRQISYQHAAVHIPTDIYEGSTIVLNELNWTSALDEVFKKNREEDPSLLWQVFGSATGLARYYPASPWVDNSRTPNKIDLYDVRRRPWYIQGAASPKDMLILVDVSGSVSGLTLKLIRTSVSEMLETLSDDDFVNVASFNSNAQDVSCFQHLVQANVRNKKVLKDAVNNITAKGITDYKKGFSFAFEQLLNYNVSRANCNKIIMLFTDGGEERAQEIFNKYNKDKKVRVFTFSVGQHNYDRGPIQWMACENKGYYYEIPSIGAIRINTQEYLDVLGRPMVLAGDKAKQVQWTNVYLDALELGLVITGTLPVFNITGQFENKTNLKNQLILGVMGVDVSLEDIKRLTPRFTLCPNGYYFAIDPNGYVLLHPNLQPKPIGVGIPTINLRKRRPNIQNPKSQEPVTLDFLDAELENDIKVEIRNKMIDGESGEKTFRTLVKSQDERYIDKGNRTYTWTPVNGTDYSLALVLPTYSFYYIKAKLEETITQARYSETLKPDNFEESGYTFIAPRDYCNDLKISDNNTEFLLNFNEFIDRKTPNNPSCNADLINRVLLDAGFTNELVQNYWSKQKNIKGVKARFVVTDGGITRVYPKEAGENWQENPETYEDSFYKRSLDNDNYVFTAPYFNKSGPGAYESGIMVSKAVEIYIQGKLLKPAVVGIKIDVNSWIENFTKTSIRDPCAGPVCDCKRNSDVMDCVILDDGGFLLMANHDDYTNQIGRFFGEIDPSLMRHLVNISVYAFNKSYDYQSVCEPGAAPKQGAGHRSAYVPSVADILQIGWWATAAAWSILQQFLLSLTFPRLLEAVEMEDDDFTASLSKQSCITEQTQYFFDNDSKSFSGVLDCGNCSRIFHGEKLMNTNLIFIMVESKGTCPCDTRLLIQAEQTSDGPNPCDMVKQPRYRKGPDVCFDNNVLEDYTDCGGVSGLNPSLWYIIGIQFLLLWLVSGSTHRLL

Row | SMILES | Ki [1] [nM] | Ki (Table 2, dual compounds, [3H]-Gabapentin binding) [nM]
1 | CCNc1ncc2c(n1)N(C)CCN(c1cccc(COC(C)CCNC)c1)C2=O (stereo not drawn) [Example 191, 2-(ethylamino)-9-methyl-6-(3-(((4-(methylamino)butan-2-yl)oxy)methyl)phenyl)-6,7,8,9-tetrahydro-5H-pyrimido[4,5-e][1,4]diazepin-5-one] | 500 to 3000 | 
2 | CCN1CCN(c2cccc(-c3nnc(C)o3)c2)C(=O)c2cnc(SC)nc21 [Example 30, 9-ethyl-6-(3-(5-methyl-1,3,4-oxadiazol-2-yl)phenyl)-2-(methylthio)-6,7,8,9-tetrahydro-5H-pyrimido[4,5-e][1,4]diazepin-5-one] | > 3000 | 
3 | CCNc1ncc2c(n1)N(C)CCN(c1cccc(OC(CN(C)C(=O)OC(C)(C)C)C(C)C)c1)C2=O (stereo not drawn) [Example 75, tert-butyl (2-(3-(2-(ethylamino)-9-methyl-5-oxo-5,7,8,9-tetrahydro-6H-pyrimido[4,5-e][1,4]diazepin-6-yl)phenoxy)-3-methylbutyl) (methyl)carbamate] | > 3000 | 
4 | Cc1nnc(-c2cccc(N3CCN(C)c4nc(NCc5ccccc5)ncc4C3=O)c2)o1 [Example 102, 2-(benzylamino)-9-methyl-6-(3-(5-methyl-1,3,4-oxadiazol-2-yl)phenyl)-6,7,8,9-tetrahydro-5H-pyrimido[4,5-e][1,4]diazepin-5-one] | > 3000 | 
5 | Cc1nnc(-c2cccc(N3CCN(C)c4nc(N)ncc4C3=O)c2)o1 [Example 101, 2-amino-9-methyl-6-(3-(5-methyl-1,3,4-oxadiazol-2-yl)phenyl)-6,7,8,9-tetrahydro-5H-pyrimido[4,5-e][1,4]diazepin-5-one] | 500 to 3000 | 
6 | CCNc1ncc2c(n1)N(C)CCN(c1cccc(-n3cnc(CNC)c3)c1)C2=O [Example 186, 2-(ethylamino)-9-methyl-6-(3-(4-((methylamino)methyl)-1H-imidazol-1-yl)phenyl)-6,7,8,9-tetrahydro-5H-pyrimido[4,5-e][1,4]diazepin-5-one] | 100 to 500 | 
7 | CCNc1ncc2c(n1)N(C)CCN(c1cccc(COC(C)CCN(C)C(=O)OC(C)(C)C)c1)C2=O (stereo not drawn) [Example 127, tert-butyl (3-((3-(2-(ethylamino)-9-methyl-5-oxo-5,7,8,9-tetrahydro-6H-pyrimido[4,5-e][1,4]diazepin-6-yl)benzyl)oxy)butyl) (methyl)carbamate] | > 3000 | 
8 | CCNc1ncc2c(n1)N(C)CCN(c1cccc(-n3cc(C(OCC)OCC)nn3)c1)C2=O [Example 119, 6-(3-(4-(diethoxymethyl)-1H-1,2,3-triazol-1-yl)phenyl)-2-(ethylamino)-9-methyl-6,7,8,9-tetrahydro-5H-pyrimido[4,5-e][1,4]diazepin-5-one] | > 3000 | 
9 | CCNc1ncc2c(n1)N(C)CCN(c1cccc(OC(CCN(CCF)C(=O)OC(C)(C)C)c3cccs3)c1)C2=O (stereo not drawn) [Example 134, tert-butyl (3-(3-(2-(ethylamino)-9-methyl-5-oxo-5,7,8,9-tetrahydro-6H-pyrimido[4,5-e][1,4]diazepin-6-yl)phenoxy)-3-(thiophen-2-yl)propyl)(2-fluoroethyl)carbamate] | > 3000 | 
10 | CCNc1ncc2c(n1)N(C)CCN(c1cccc(-c3nnc(CN(C)Cc4ccccc4)o3)c1)C2=O [Example 255, 6-(3-(5-((benzyl(methyl)amino)methyl)-1,3,4-oxadiazol-2-yl)phenyl)-2-(ethylamino)-9-methyl-6,7,8,9-tetrahydro-5H-pyrimido[4,5-e][1,4]diazepin-5-one] | 100 to 500 | 
11 | CSc1ncc2c(n1)N(C)CCN(c1cccc(COC3(c4ccccc4)CCN(C(=O)OC(C)(C)C)CC3)c1)C2=O [Example 28, tert-butyl 4-((3-(9-methyl-2-(methylthio)-5-oxo-5,7,8,9-tetrahydro-6H-pyrimido[4,5-e][1,4]diazepin-6-yl)benzyl)oxy)-4-phenylpiperidine-1-carboxylate] | > 3000 | 
12 | CSc1ncc2c(n1)N(C)CCN(c1cccc(OC3CCN(C(=O)OC(C)(C)C)C3)c1)C2=O (stereo not drawn) [Example 27, tert-butyl 3-(3-(9-methyl-2-(methylthio)-5-oxo-5,7,8,9-tetrahydro-6H-pyrimido[4,5-e][1,4]diazepin-6-yl)phenoxy) pyrrolidine-1-carboxylate] | > 3000 | 
13 | CCNc1ncc2c(n1)N(C)CCN(c1cccc(OC3CCN(Cc4ccccc4)C3)c1)C2=O (stereo not drawn) [Example 266, 6-(3-((1-benzylpyrrolidin-3-yl)oxy)phenyl)-2-(ethylamino)-9-methyl-6,7,8,9-tetrahydro-5H-pyrimido[4,5-e][1,4]diazepin-5-one] | 100 to 500 | 
14 | CCNc1ncc2c(n1)N(C)CCN(c1ccc(O)cc1)C2=O [Example 178, 2-(ethylamino)-6-(4-hydroxyphenyl)-9-methyl-6,7,8,9-tetrahydro-5H-pyrimido[4,5-e][1,4]diazepin-5-one] | > 3000 | 
15 | CCNc1ncc2c(n1)N(C)CCN(c1cccc(OC(C)CNC)c1)C2=O (stereo not drawn) [Example 157, 2-(ethylamino)-9-methyl-6-(3-((1-(methylamino)propan-2-yl)oxy)phenyl)-6,7,8,9-tetrahydro-5H-pyrimido[4,5-e][1,4]diazepin-5-one] | 500 to 3000 | 
16 | CCNc1ncc2c(n1)N(C)CCN(c1cccc(C3CCN(C)CC3)c1)C2=O [Example 260, 2-(ethylamino)-9-methyl-6-(3-(1-methylpiperidin-4-yl)phenyl)-6,7,8,9-tetrahydro-5H-pyrimido[4,5-e][1,4]diazepin-5-one] | 100 to 500 | 
17 | CNCCC(OCc1cccc(N2CCN(C)c3nc(OC)ncc3C2=O)c1)c1cccs1 (stereo not drawn) [Example 221, 2-methoxy-9-methyl-6-(3-((3-(methylamino)-1-(thiophen-2-yl)propoxy)methyl)phenyl)-6,7,8,9-tetrahydro-5H-pyrimido[4,5-e][1,4]diazepin-5-one] | 500 to 3000 | 100 to 500
18 | CCNc1ncc2c(n1)N(C)CCN(c1cccc(OCCCN(C)C(=O)OC(C)(C)C)c1)C2=O [Example 88, tert-butyl (3-(3-(2-(ethylamino)-9-methyl-5-oxo-5,7,8,9-tetrahydro-6H-pyrimido[4,5-e][1,4]diazepin-6-yl)phenoxy)propyl) (methyl)carbamate] | > 3000 | 
19 | CCNc1ncc2c(n1)N(C)CCN(c1cccc(-n3cnc(CN4CCC(c5cccc(O)c5)(N(C)C)CC4)c3)c1)C2=O [Example 296, 6-(3-(4-((4-(dimethylamino)-4-(3-hydroxyphenyl)piperidin-1-yl)methyl)-1H-imidazol-1-yl)phenyl)-2-(ethylamino)-9-methyl-6,7,8,9-tetrahydro-5H-pyrimido[4,5-e][1,4]diazepin-5-one] | 500 to 3000 | 

Further lines, results first:

Row | Ki [1] [nM] | Ki (Table 2, dual compounds, [3H]-Gabapentin binding) [nM] | SMILES
20 | > 3000 |  | CSc1ncc2c(n1)N(C)CCN(c1cccc(O[C@H](CCN(C)C(=O)OC(C)(C)C)c3cccs3)c1)C2=O [Example 13, tert-butyl (R)-methyl(3-(3-(9-methyl-2-(methylthio)-5-oxo-5,7,8,9-tetrahydro-6H-pyrimido[4,5-e] [1,4]diazepin-6-yl)phenoxy)-3-(thiophen-2-yl)propyl) carbamate]
21 | > 3000 |  | CNCC(Oc1ccccc1CN1CCN(C)c2nc(SC)ncc2C1=O)c1ccccc1 (stereo not drawn) [Example 371, 9-methyl-6-(2-(2-(methylamino)-1-phenylethoxy)benzyl)-2-(methylthio)-6,7,8,9-tetrahydro-5H-pyrimido[4,5-e][1,4]diazepin-5-one]
22 | > 3000 |  | CSc1ncc2c(n1)N(C)CCN(c1cccc(OC(CCN(C)C(=O)OC(C)(C)C)c3ccccn3)c1)C2=O (stereo not drawn) [Example 52, tert-butyl methyl(3-(3-(9-methyl-2-(methylthio)-5-oxo-5,7,8,9-tetrahydro-6H-pyrimido[4,5-e][1,4]diazepin-6-yl)phenoxy)-3-(pyridin-2-yl)propyl) carbamate]
23 | > 3000 |  | CNCCC(OCc1ccccc1CN1CCN(C)c2nc(SC)ncc2C1=O)c1ccccc1 (stereo not drawn) [Example 365, 9-methyl-6-(2-((3-(methylamino)-1-phenylpropoxy)methyl)benzyl)-2-(methylthio)-6,7,8,9-tetrahydro-5H-pyrimido[4,5-e][1,4]diazepin-5-one]
24 | > 3000 |  | CCNc1ncc2c(n1)N(C)CCN(c1cccc(CO[C@H](CCN(C)C(=O)OC(C)(C)C)c3ccccc3)c1)C2=O [Example 78, tert-butyl (R)-(3-((3-(2-(ethylamino)-9-methyl-5-oxo-5,7,8,9-tetrahydro-6H-pyrimido[4,5-e][1,4]diazepin-6-yl)benzyl)oxy)-3-phenylpropyl)(methyl) carbamate]
25 | > 3000 |  | CSc1ncc2c(n1)N(C)CCN(c1cccc(-n3cc(CN(Cc4ccccc4)C(=O)OC(C)(C)C)nn3)c1)C2=O [Example 41, tert-butyl benzyl((1-(3 (9-methyl-2-(methylthio)-5-oxo-5,7,8,9-tetrahydro-6H pyrimido[4,5-e][1,4]diazepin-6-yl)phenyl)-1H-1,2,3-triazol-4-yl)methyl) carbamate]
26 | > 3000 |  | CNc1ncc2c(n1)N(C)CCN(c1cccc(CO[C@H](CCN(C)C(=O)OC(C)(C)C)c3ccccc3)c1)C2=O [Example 132, tert-butyl (R)-methyl(3-((3-(9-methyl-2-(methylamino)-5-oxo-5,7,8,9-tetrahydro-6H-pyrimido[4,5-e][1,4]diazepin-6-yl)benzyl)oxy)-3-phenylpropyl)carbamate]
27 | > 3000 |  | CSc1ncc2c(n1)N(C)CCN(c1cccc(OC(CNC(=O)OC(C)(C)C)c3ccccc3)c1)C2=O (stereo not drawn) [Example 5, tert-butyl (2-(3-(9-methyl-2-(methylthio)-5-oxo-5,7,8,9-tetrahydro-6H-pyrimido[4,5-e][1,4]diazepin-6-yl)phenoxy)-2-phenylethyl) carbamate]
28 | > 3000 |  | CCNc1ncc2c(n1)N(C)CCN(c1cccc(OC(CN(C)C(=O)OC(C)(C)C)c3ccccc3)c1)C2=O (stereo not drawn) [Example 72, tert-butyl (2-(3-(2-(ethylamino)-9-methyl-5-oxo-5,7,8,9-tetrahydro-6H-pyrimido[4,5-e][1,4]diazepin-6-yl)phenoxy)-2-phenylethyl)(methyl) carbamate]
29 | > 3000 |  | CNCCC(C)OCc1cccc(N2CCN(C)c3nc(SC)ncc3C2=O)c1 (stereo not drawn) [Example 192, 9-methyl-6-(3-(((4-(methylamino)butan-2-yl)oxy)methyl)phenyl)-2-(methylthio)-6,7,8,9-tetrahydro-5H-pyrimido[4,5-e][1,4]diazepin-5-one]
